Test results as given in patent US6974871B2, “Dequalinium analogs” (priority 2000, dated 2005).
Several values for one entry are separate records, joined by “and”; a condition that tells them apart may be missing. Identical values can stand only once.

What was measured:
Recombinant human PKCα = molecular target: T1, Recombinant human PKCα (Homo sapiens, UniProt P17252); experiment: Assay of PKCα catalytic activity in vitro; type: biochemical; details: for IC50: reversible binding conditions, average of two or more independent experiments (± s.d.), read-out: IC50 (analogue concentration producing 50% inhibition of PKCα activity); for fold stronger inhibitory potency compared with C6-DECA (1a): IC50 ratio versus 1a; for fold stronger inhibitory potency than 1c: IC50 ratio versus 1c (C10-DECA)
T1 construct: purchased PanVera Corp., Madison, Wis
Protocol: Assay of PKCα Catalytic Activity In Vitro
(§1) Recombinant human PKCα (>95% pure) (PanVera Corp., Madison, Wis.) was used for testing DECA analogues in vitro. Total PKCα catalytic activity (36 ng protein) and the indicated concentration of DECA analogue was measured in triplicate in the presence of activating cofactors (10 μg phosphatidylserine, 0.5 mM Ca^2+) by the transfer of ^32P from [γ-^32P]-ATP to the modified pseudosubstrate peptide (RFARKGSLRQKNV), as described elsewhere^1. For assay of partially purified B16 F10 cell lysates (25 μg/assay), PKC activity was taken as the difference in phosphotransferase activity measured in triplicate in the presence and absence of activating cofactors (10 μg phosphatidylserine, 0.5 mM Ca^2+) as previously described^2.

intracellular PKCα = molecular target: T2, intracellular PKCα (Mus musculus, UniProt P20444); experiment: Photoinduced inactivation of intracellular PKC activity in melanoma cells (DECA analogue plus longwave UV); type: cell-based, murine; details: B16 F10 cells; for inhibition at 0.25 µM: 250 nM, 1 h, plus UV irradiation 5 min
T2 construct: endogenous in cells; host or cells: murine melanoma B16 F10 cells
Protocol: as §1
Inactivation of PKCα in Murine Melanoma Cells with Ultraviolet Radiation and DECA Analogues
Murine melanoma B16 F10 cells were cultured in 15 cm^2 dishes to 75-80% confluence in RPMI medium containing 10% fetal bovine serum, 1% penicillin/streptomycin, and 0.125 μg/ml fungizone. Prior to drug application, cells were washed twice with phosphate buffered saline (PBS) and were restored in serum-free medium containing either DMSO (0.1% v/v) or 250 nM C12-, C14-, or C16-DECA analogue. Monolayers of cells were treated with or without the indicated DECA analogue for 1 h and irradiated for 5-min (1200 μW/cm^2) with a UV lamp (American Ultraviolet Co., Murray Hill, N.J.). Following this treatment, the medium was removed and the cells were washed twice with PBS. Preparation of cell lysates was followed by partial purification by DEAE-Sephacel chromatography, as previously described^2.
(§2) A confluent monolayer of cells was washed twice with PBS and the indicated concentration of DECA analogue was added to the cells in serum-free medium. Cells were treated with or without the drug for 1 h at 37° C., 5% CO2, followed by washing with PBS. In PBS and with the lids off, cells were irradiated with longwave UV light for 5-min (1200 μW/cm^2). […]

[1] = system: murine melanoma B16 F10 cells; experiment: Time-lapse cell motility (scratch wound) assay; type: cell-based; details: 250 nM plus UV 5 min
Protocol: To measure cell motility by digital image capture, an Olympus IMT-2 inverted phase contrast microscope (Olympus Microscopes, UK), fitted with a Fujitsu TC2-336P CCD camera (EOS Electronics AV Ltd, Barry, Wales) and surrounded by a perspex temperature-regulated jacket that was adjusted to 37° C. Cells were plated onto 3-cm^2 petri dishes such that a densely confluent monolayer was achieved within 24 or 48 h. Following treatment of cells with C10-DECA and UV, a ‘scratch wound’ was created by drawing a sterile micro-pipette tip along the monolayer using a ruler as a guide. Detached cells were removed by washing twice in growth medium before adding 2 ml fresh medium. […] The chamber was gassed with 10% CO2 in humidified air and was placed onto the stage of the microscope. A regular wound edge was chosen and digital images were collected every 30 min for 8 h onto a Power Mac 7100 using Adobe Premier software. The percentage of the capture window (determined as 726 μm×544 μm) that had been filled in by the movement of cells (normalized to the original wound edge) was determined with Optilab software and plotted against time.
A confluent monolayer of cells was washed twice with PBS and the indicated concentration of DECA analogue was added to the cells in serum-free medium. Cells were treated with or without the drug for 1 h at 37° C., 5% CO2, followed by washing with PBS. […]

[2] = system: murine melanoma B16 F10 cells; experiment: Cell migration in transwell (Boyden chamber); type: cell-based; details: for inhibition of cell migration: 250 nM plus UV 5 min, initial 3 h post-treatment, Boyden chamber
Protocol: A 12-mm Costar transwell (Boyden chamber) having a 12-μm pore size was used to measure cell movement across a porous polycarbonate membrane. The bottom surface was coated with 35 μg Matrigel for 1 h at 37° C., 5% CO2. Cells were seeded into the upper chamber of the transwell at 10^5 cells/well and incubated at 37° C., 5% CO2. Following incubation for 3 h, the upper chamber was carefully wiped with a cotton swab in order to remove cells that remained on the upper membrane surface. Those cells that had migrated to the lower membrane surface were fixed and stained by the H+E Method (Fisher Diagnostics Leukostat). By use of a Nikon Diaphot-TMD inverted microscope at 400× magnification, eight fields of adherent cells were randomly counted in each well and numerically averaged. Each condition was conducted in triplicate and statistical significance was determined by ANOVA using SigmaStat software.
Inhibition of cell migration by 250 nM DECA analogues (C10-(control), C12-, and C14-DECA) was analyzed during the initial 3 h post-treatment by the use of Boyden chambers. Cells that had been treated with a DECA analogue plus UV were applied to the upper surface of the membrane whereupon they moved chemotactically through the membrane, and adhered to Matrigel, which had been coated onto the under surface of the membrane. Following the initial 3 h, the number of cells migrating to this lower surface was measured.
as §2, with “μW/cm^2). Irradiation was carried out with a longwave UV lamp (American Ultraviolet Co., Murray Hill, N.J.) while the plate of cells were subjected to gentle shaking at room temperature. Following this treatment, the medium was removed and the cells were washed twice with PBS.” for “μW/cm^2).”

[3] = molecular target: protein kinase C (PKC) isoforms (e.g., α, β1); details: several isoforms (e.g., α, β1); read-out: IC50 for PKC isoforms in vitro; cited from earlier work
[4] = molecular target: cAMP-dependent protein kinase (PKA) (Homo sapiens, UniProt P17612); experiment: Inhibition of homologous protein kinase PKA; type: biochemical; details: micromolar concentrations
[5] = system: calmodulin-dependent myosin light chain kinase; experiment: Inhibition of homologous protein kinase MLCK; type: biochemical; details: micromolar concentrations
[6] = molecular target: pp60src tyrosine protein kinase (Homo sapiens, UniProt P12931); experiment: Inhibition of homologous protein kinase pp60src; type: biochemical; details: micromolar concentrations
B16F10 cells = experiment: Experimental metastasis in mice (B16F10 tail vein injection, pulmonary nodules); type: in vivo, C57BL/6 mice; details: 5 mg/kg IP every other day for 2 weeks, versus vehicle
Protocol: In preparation for tail vein injections, mice were tranquilized with 0.2 mg of acepromazine via i.p. injections. B16F10 cells obtained from ex-vivo culture were injected into the tail vein (10^5 cells/0.2 ml). Animals were treated IP with vehicle (0.36% sodium citrate) or 5 mg/kg of C14-DECA on the day of the tail vein injection and every other day thereafter for a 2-3 week experiment. At the end of the experimental period, the mice were sacrificed by CO2 asphyxiation. The lungs were removed and placed in 10% formalin until the metastatic nodules were counted using a dissecting microscope.

Chain of pp60src tyrosine protein kinase (P12931 whole entry): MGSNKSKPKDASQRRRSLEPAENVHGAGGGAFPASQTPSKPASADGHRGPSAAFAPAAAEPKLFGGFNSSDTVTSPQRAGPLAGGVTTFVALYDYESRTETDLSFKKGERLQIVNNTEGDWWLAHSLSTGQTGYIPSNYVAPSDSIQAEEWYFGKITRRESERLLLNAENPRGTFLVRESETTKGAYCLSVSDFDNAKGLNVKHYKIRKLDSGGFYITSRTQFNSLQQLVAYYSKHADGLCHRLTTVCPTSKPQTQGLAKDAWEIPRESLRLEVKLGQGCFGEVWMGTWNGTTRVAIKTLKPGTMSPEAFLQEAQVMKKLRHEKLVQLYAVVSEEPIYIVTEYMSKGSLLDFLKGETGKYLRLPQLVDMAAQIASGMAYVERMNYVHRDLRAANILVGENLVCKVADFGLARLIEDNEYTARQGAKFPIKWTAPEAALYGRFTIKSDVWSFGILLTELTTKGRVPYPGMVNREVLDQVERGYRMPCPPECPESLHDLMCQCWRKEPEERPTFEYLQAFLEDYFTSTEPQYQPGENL

Cc1cc(N)c2ccccc2[n+]1CCCCCC[n+]1c(C)cc(N)c2ccccc21 [Compound 1a]
IC50 (Recombinant human PKCα): 54 µM

Cc1cc(N)c2ccccc2[n+]1CCCCCCCC[n+]1c(C)cc(N)c2ccccc21 [Compound 1b]
IC50 (Recombinant human PKCα): 25 ± 9 µM

Cc1cc(N)c2ccccc2[n+]1CCCCCCCCCC[n+]1c(C)cc(N)c2ccccc21 [Compound 1c, quinolinium, 1,1′-(1,10-decanediyl)bis(4-amino-2-methyldiiodide)]
inhibition at 0.25 µM (intracellular PKCα): 35%
loss of cell motility [1]: 33%
inhibition of cell migration [2]: 20-30%
IC50 [3]: 10 to 14 µM
IC50 (Recombinant human PKCα): 11 µM and 11 to 12 µM
sensitivity of PKA to inhibition [4]: insensitive
sensitivity of calmodulin-dependent myosin light chain kinase to inhibition [5]: insensitive
sensitivity of pp60src tyrosine protein kinase to inhibition [6]: insensitive

Cc1cc(N)c2ccccc2[n+]1CCCCCCCCCCCC[n+]1c(C)cc(N)c2ccccc21 [Compound 1d, 1,1′-(1,12-Dodecanediyl)bis[4-amino-2-methyl]quinolinium, diiodide]
IC50 (Recombinant human PKCα): 5 ± 2 µM

Cc1cc(N)c2ccccc2[n+]1CCCCCCCCCCCCCC[n+]1c(C)cc(N)c2ccccc21 [Compound 1e, 1,1′-(1,14-Tetradecanediyl)bis[4-amino-2-methyl]quinolinium, diiodide]
inhibition of intracellular PKC activity without UV (intracellular PKCα; 250 nM alone, no UV): no inhibitory effect
inhibition at 0.25 µM (intracellular PKCα): 40 to 60%
inhibition of cell migration [2]: 40-60%
concentration dependence of inhibition of cell migration ([2]; range of 0-500 nM): dose-dependent
fewer pulmonary nodules (B16F10 cells): 40%
fold stronger inhibitory potency compared with C6-DECA (1a) (Recombinant human PKCα): 20 fold
fold stronger inhibitory potency than 1c (Recombinant human PKCα): 4 fold
IC50 (Recombinant human PKCα): 2.6 µM and 2.5 µM

Cc1cc(N)c2ccccc2[n+]1CCCCCCCCCCCCCCCC[n+]1c(C)cc(N)c2ccccc21 [Compound 1f, 1,1′-(1,16-Hexadecanediyl)bis[4-amino-2-methyl]quinolinium, diiodide]
fold stronger inhibitory potency compared with C6-DECA (1a) (Recombinant human PKCα): 20 fold
fold stronger inhibitory potency than 1c (Recombinant human PKCα): 4 fold
IC50 (Recombinant human PKCα): 2.6 µM and 2.8 µM

CCCCCCCCCC[n+]1c(C)cc(N)c2ccccc21 [Compound 2, N-Decyl-4-aminoquinaldinium iodide]
IC50 (Recombinant human PKCα): 117 ± 8 µM

Cc1cc(N)c2ccccc2[n+]1C [Compound 3]
IC50 (Recombinant human PKCα): 3590 ± 510 µM
